These results are taken from ChEMBL document CHEMBL2021855, “Hepatitis C RNA-dependent RNA polymerase inhibitors: a review of structure-activity and resistance relationships; different scaffolds and mutations” (Bioorg Med Chem, 2012).

A short description of data set [1]: Inhibition of Hepatitis C virus NS5B RNA-dependent RNA polymerase. Also on record: species or system Hepacivirus hominis.
Data set [2] relates to Hepatitis C virus. In words: Antiviral activity against Hepatitis C virus assessed as inhibition of viral replication by replicon assay. The format is functional, organism-based, Hepacivirus hominis. (In general: In antiviral work, replicon cells carry a viral genome segment that copies itself.)
Data set [3] relates to Hepatitis C virus. Put plainly: Inhibition of Hepatitis C virus genotype 1b NS5B RNA-dependent RNA polymerase P495L mutant. Also on record: species or system Hepatitis C virus subtype 1b.
For data set [4], the system named is Hepatitis C virus. In words: Inhibition of Hepatitis C virus genotype 1b NS5B RNA-dependent RNA polymerase M423 mutant. Also on record: species or system Hepatitis C virus subtype 1b.
In data set [5] the test system is Hepatitis C virus. In words: Inhibition of Hepatitis C virus genotype 1b NS5B RNA-dependent RNA polymerase. Also on record: species or system Hepatitis C virus subtype 1b.
Data set [6] is described as follows: Competitive inhibition of Hepatitis C virus NS5B RNA-dependent RNA polymerase. On the set-up: species or system Hepacivirus hominis.
In data set [7] the test system is Hepatitis C virus. Put plainly: Antiviral activity against Hepatitis C virus genotype 1b assessed as inhibition of viral replication by replicon assay. The format is functional, organism-based, Hepacivirus hominis.
For data set [8], the system named is Hepatitis C virus. Put plainly: Antiviral activity against Hepatitis C virus genotype 1a assessed as inhibition of viral replication by replicon assay. The format is functional, organism-based, Hepacivirus hominis. The conditions noted are these: subtype 1a.
A short description of data set [9]: Inhibition of Hepatitis C virus genotype 1 NS5B RNA-dependent RNA polymerase.
Data set [10] concerns Hepatitis C virus. In words: Inhibition of Hepatitis C virus con1 NS5B RNA-dependent RNA polymerase C316Y mutant. On the set-up: species or system Hepacivirus hominis.
For data set [11], the system named is Hepatitis C virus. Put plainly: Inhibition of Hepatitis C virus con1 NS5B RNA-dependent RNA polymerase. Also on record: species or system Hepacivirus hominis.
The nature of data set [12]: Half life in human liver microsomes.
The nature of data set [13]: Cytotoxicity against human HuH7 cells. The format is cell-based, Huh-7.
Data set [14] is described as follows: Half life in monkey liver microsomes. The following applies: rhesus monkey.
Data set [15] deals with Hepatitis C virus. In words: Antiviral activity against Hepatitis C virus genotype 1b infected in human HuH7 cells assessed as inhibition of viral replication by replicon assay. It is filed as functional, organism-based, Hepacivirus hominis. The conditions noted are these: Huh-7.
The subject of data set [16] is Hepatitis C virus. In words: Antiviral activity against Hepatitis C virus genotype 1a infected in human HuH7 cells assessed as inhibition of viral replication by replicon assay. It is filed as functional, organism-based, Hepacivirus hominis. The following applies: subtype 1a, Huh-7.

Where only a bound is given, the exact number is not on record here.

The term IC50 denotes the concentration that inhibits the measured activity by half. For orientation: EC50 means the midpoint of the concentration-response curve. As usually defined, the Ki is the dissociation constant of the complex between target and ligand, obtained from inhibition or displacement. For orientation: half-life means the time in which the quantity being followed falls by half. As a reminder, the CC50 is the concentration at which the toxic effect on the cells reaches its halfway point.

Take `O=C(O)/C=C/c1ccc(NC(=O)C2(NC(=O)c3ccc4c(c3)nc(-c3ccoc3)n4C3CCCCC3)CCCC2)cc1`: in data set [1], inhibition was half-maximal at 95 nM (IC50). For the same molecule, the EC50 in the data set on Hepatitis C virus [2] turned out to be 72 nM.
Regarding `CO[C@@H]1[C@H](O)[C@@H](CO)O[C@H]1n1ccc(N)nc1=O`, in [1], it took 1200 nM to reach half-maximal inhibition (IC50).
`Nc1nc(O)c2ccn([C@@H]3O[C@H](CO)C[C@H]3O)c2n1` returned an IC50 in data set [1] of 80 nM.
`Nc1ncnc2c1ccn2[C@@H]1O[C@H](CO)C[C@H]1O` yielded an IC50 in [1] of 80 nM.
With `C[C@@]1(O)[C@H](O)[C@@H](CO)O[C@H]1n1cc(F)c2c(N)ncnc21`, in the data set with Hepatitis C virus [2], the EC50 stood at 70 nM.
Turning to `O=C(O)c1ccc2c(c1)nc(-c1ccc(OCc3cc(N4CCCC4=O)ccc3-c3ccc(Cl)cc3)cc1F)n2C1CCCCC1`, the IC50 in the data set on Hepatitis C virus [3] amounted to 1500 nM.
`CO[C@@H]1[C@H](O)[C@@H](CO)O[C@H]1n1cnc2c(O)nc(N)nc21` returned an IC50 in data set [1] of 3800 nM.
Take `C[C@H]1CC[C@H](C(=O)N(c2cc(-c3ccccc3)sc2C(=O)O)[C@H]2CC[C@H](O)CC2)CC1`: the IC50 in the data set with Hepatitis C virus [4] turned out to be 450 nM; with Hepatitis C virus [5], 17 nM.
`Nc1ccn([C@@H]2O[C@H](CO)C[C@H]2O)c(=O)n1` registered an IC50 in [1] of 80 nM.
In the case of `CO[C@@H]1[C@H](O)[C@@H](CO)O[C@H]1n1ccc2c(O)nc(N)nc21`, in data set [1], it took 350 nM to reach half-maximal inhibition (IC50).
The molecule `O=C(O)/C=C/c1ccc(NC(=O)CNC(=O)c2ccc3c(c2)nc(-c2ccoc2)n3C2CCCCC2)cc1` displayed an IC50 in data set [1] of 280 nM.
Regarding `Nc1nc2c(ncn2[C@@H]2O[C@H](CO)C[C@H]2O)c(=O)[nH]1`, the IC50 in [1] turned out to be 80 nM.
`C[C@@]1(O)[C@H](O)[C@@H](CO)O[C@H]1n1cnc2c(=O)[nH]c(N)nc21` [2'-B-METHYL-GUANOSINE] yielded an EC50 in [1] of 3500 nM.
For `[N-]=[N+]=N[C@]1(CO)O[C@@H](n2ccc(N)nc2=O)[C@H](O)[C@@H]1O` [4'-AZIDOCYTIDINE], the Ki in [6] came out at 40 nM.
Regarding `COC[C@H]1C[C@@](Cn2cccn2)(C(=O)O)N(C(=O)c2ccc(C(C)(C)C)c(OC)c2)[C@H]1c1nccs1` [GSK-625433], the EC50 in the data set on Hepatitis C virus [7] stood at 2 nM; with Hepatitis C virus [8], 290 nM.
`CNC(=O)c1c(-c2ccc(F)cc2)oc2cc(N(CCO)S(C)(=O)=O)c(C3CC3)cc12` [NESBUVIR]: the IC50 in data set [9] is 10 nM; in the data set on Hepatitis C virus [10], 2160 nM; in the data set with Hepatitis C virus [11], 0.8 nM. Further, the values for the EC50 in the data set with Hepatitis C virus [7] and with Hepatitis C virus [8] were 9 nM and 5 nM, respectively.
On to `CS(=O)(=O)Nc1ccc2c(c1)S(=O)(=O)N=C(C1=C(O)[C@@H]3[C@H]4CC[C@H](C4)[C@@H]3N(Cc3ccc(F)cc3)C1=O)N2` [SETROBUVIR], for which the half-life in [12] and in data set [14] was more than 1 h in each case. Further, the CC50 in [13] stood at 100000 nM. Besides, the EC50 in the data set on Hepatitis C virus [15] was found to be 3 nM; in the data set on Hepatitis C virus [16], 52 nM.
